What was measured:
Type in all cases: in vivo
[1] = system: foxtail, giant (giant foxtail, Setaria faberii); test: Test A preemergence, giant foxtail; conditions: Preemergence, 0 to 100 scale (0 no effect, 100 complete control)
Method in brief: (§1)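 Pre- and postemergence greenhouse screen in loam–sand soil. Test chemicals were delivered in a non-phytotoxic solvent with surfactant, preemergence as a directed spray onto seeded soil and postemergence onto 2–10 cm seedlings. Injury was judged by eye after ~10 days on a 0–100 scale.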

[2] = system: ragweed (common ragweed, Ambrosia elatior); test: Test A postemergence, ragweed
Method in brief: as §1

[3] = system: foxtail, giant (giant foxtail, Setaria faberii); test: Test A postemergence, giant foxtail
Method in brief: as §1

kochia (Kochia scoparia) [4] = test: Test A postemergence, kochia
Method in brief: as §1

[5] = system: wheat (Triticum aestivum); test: Test A postemergence, wheat
Method in brief: as §1

corn (Zea mays) = test: Test A postemergence, corn
Method in brief: as §1

[6] = system: ryegrass, Italian (Italian ryegrass, Lolium multiflorum); test: Test A preemergence, Italian ryegrass; conditions: Preemergence, 0 to 100 scale (0 no effect, 100 complete control)
Method in brief: as §1

[7] = system: ragweed (common ragweed, Ambrosia elatior); test: Test A preemergence, ragweed; conditions: Preemergence, 0 to 100 scale (0 no effect, 100 complete control)
Method in brief: as §1

[8] = system: barnyardgrass (Echinochloa crus-galli); test: Test A postemergence, barnyardgrass
Method in brief: as §1

[9] = system: blackgrass (Alopecurus myosuroides); test: Test A postemergence, blackgrass
Method in brief: as §1

[10] = system: galium (catchweed bedstraw, Galium aparine); test: Test A postemergence, galium
Method in brief: as §1

[11] = system: pigweed (Amaranthus retroflexus); test: Test A postemergence, pigweed
Method in brief: as §1

[12] = system: barnyardgrass (Echinochloa crus-galli); test: Test A preemergence, barnyardgrass; conditions: Preemergence, 0 to 100 scale (0 no effect, 100 complete control)
Method in brief: as §1

[13] = system: barnyardgrass (Echinochloa crus-galli); test: Test B flooded paddy test, barnyardgrass; conditions: 250 g ai/ha, Flood; visual rating after 13 to 15 days; scale 0 to 100, 0 is no effect, 100 is complete control
Method in brief: (§2)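 Seedlings at the 2-leaf stage are flooded to 3 cm and treated via the paddy water. Greenhouse plants are compared with controls after 13 to 15 days and given a 0 (no effect) to 100 (complete control) rating.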

[14] = system: sedge, umbrella (small-flower umbrella sedge, Cyperus difformis); test: Test B flooded paddy test, umbrella sedge; conditions: 250 g ai/ha, Flood; visual rating after 13 to 15 days; scale 0 to 100, 0 is no effect, 100 is complete control
Method in brief: as §2

kochia (Kochia scoparia) [15] = test: Test A preemergence, kochia; conditions: Preemergence, 0 to 100 scale (0 no effect, 100 complete control)
Method in brief: as §1

[16] = system: ducksalad (Heteranthera limosa); test: Test B flooded paddy test, ducksalad; conditions: 250 g ai/ha, Flood; visual rating after 13 to 15 days; scale 0 to 100, 0 is no effect, 100 is complete control
Method in brief: as §2

rice (Oryza sativa) = test: Test B flooded paddy test, rice; conditions: 250 g ai/ha, Flood; visual rating after 13 to 15 days; scale 0 to 100, 0 is no effect, 100 is complete control
Method in brief: as §2

[17] = system: pigweed (Amaranthus retroflexus); test: Test A preemergence, pigweed; conditions: Preemergence, 0 to 100 scale (0 no effect, 100 complete control)
Method in brief: as §1

[18] = system: ryegrass, Italian (Italian ryegrass, Lolium multiflorum); test: Test A postemergence, Italian ryegrass
Method in brief: as §1

[19] = 125 g ai/ha, postemergence, 0 to 100 scale, 0 is no effect, 100 is complete control, approximately 10 days
[20] = Postemergence, 31 g ai/ha, 0 to 100 scale (0 no effect, 100 complete control)

SMILES | Plant response rating, Foxtail, Giant ([1]; 31 g ai/ha) | Plant response rating, Foxtail, Giant ([1]; 125 g ai/ha) | Plant response rating, Ragweed [2, 19] | Plant response rating, Ragweed [2, 20] | Plant response rating, Foxtail, Giant [3, 19] | Plant response rating, Foxtail, Giant [3, 20] | Plant response rating, Kochia (kochia (Kochia scoparia) [4]; [19]) | Plant response rating, Kochia (kochia (Kochia scoparia) [4]; [20]) | Plant response rating, Wheat [5, 19] | Plant response rating, Wheat [5, 20] | Plant response rating, Corn (corn (Zea mays); [19]) | Plant response rating, Corn (corn (Zea mays); [20]) | Plant response rating, Ryegrass, Italian ([6]; 31 g ai/ha) | Plant response rating, Ryegrass, Italian ([6]; 125 g ai/ha) | Plant response rating, Ragweed ([7]; 31 g ai/ha) | Plant response rating, Ragweed ([7]; 125 g ai/ha) | Plant response rating, Barnyardgrass [8, 19] | Plant response rating, Barnyardgrass [8, 20] | Plant response rating, Blackgrass [9, 19] | Plant response rating, Blackgrass [9, 20] | also measured
FC(F)(F)CCOc1c(I)cccc1Oc1ncc(Cl)cn1 [Compound 69] | 90 | 100 | 40 | 30 | 100 | 40 | 100 | 90 | 30 | 0 | 70 | 20 | 10 | 50 | 0 | 0 | 100 | 60 | 80 | 30 | Plant response rating, Galium [10, 19]: 100; Plant response rating, Galium [10, 20]: 60; Plant response rating, Pigweed [11, 19]: 100; Plant response rating, Pigweed [11, 20]: 100; Plant response rating, Barnyardgrass ([12]; 31 g ai/ha): 90; Plant response rating, Barnyardgrass ([12]; 125 g ai/ha): 100; Plant response rating, Barnyardgrass [13]: 40; Plant response rating, Sedge, Umbrella [14]: 100; Plant response rating, Kochia (kochia (Kochia scoparia) [15]; 31 g ai/ha): 80; Plant response rating, Kochia (kochia (Kochia scoparia) [15]; 125 g ai/ha): 100; Plant response rating, Ducksalad [16]: 100; Plant response rating, Rice (rice (Oryza sativa)): 15; Plant response rating, Pigweed ([17]; 31 g ai/ha): 90; Plant response rating, Pigweed ([17]; 125 g ai/ha): 100; Plant response rating, Ryegrass, Italian [18, 19]: 90; Plant response rating, Ryegrass, Italian [18, 20]: 0
Cc1cccc(Oc2ncc(Cl)cn2)c1OCCCC#N [Compound 70] | 0 | 30 | 20 | 0 | 0 | 0 | 30 | 20 | 0 | 0 | 20 | 0 | 0 | 0 | 0 | 0 | 30 | 0 | 0 | 0 | Plant response rating, Galium [10, 19]: 20; Plant response rating, Galium [10, 20]: 0; Plant response rating, Pigweed [11, 19]: 40; Plant response rating, Pigweed [11, 20]: 20; Plant response rating, Barnyardgrass ([12]; 31 g ai/ha): 0; Plant response rating, Barnyardgrass ([12]; 125 g ai/ha): 70; Plant response rating, Barnyardgrass [13]: 0; Plant response rating, Sedge, Umbrella [14]: 50; Plant response rating, Kochia (kochia (Kochia scoparia) [15]; 31 g ai/ha): 0; Plant response rating, Kochia (kochia (Kochia scoparia) [15]; 125 g ai/ha): 20; Plant response rating, Ducksalad [16]: 70; Plant response rating, Rice (rice (Oryza sativa)): 0; Plant response rating, Pigweed ([17]; 31 g ai/ha): 0; Plant response rating, Pigweed ([17]; 125 g ai/ha): 50; Plant response rating, Ryegrass, Italian [18, 19]: 0; Plant response rating, Ryegrass, Italian [18, 20]: 0
C#Cc1cccc(Oc2ncc(Cl)cn2)c1OCCCF [Compound 71] | 0 | 0 | 0 | 0 | 0 | 0 | 0 | 0 | 0 | 0 | 0 | 0 | 0 | 0 | 0 | 0 | 0 | 0 | 0 | 0 | Plant response rating, Galium [10, 19]: 0; Plant response rating, Galium [10, 20]: 0; Plant response rating, Pigweed [11, 19]: 0; Plant response rating, Pigweed [11, 20]: 0; Plant response rating, Barnyardgrass ([12]; 31 g ai/ha): 0; Plant response rating, Barnyardgrass ([12]; 125 g ai/ha): 0; Plant response rating, Barnyardgrass [13]: 0; Plant response rating, Sedge, Umbrella [14]: 0; Plant response rating, Kochia (kochia (Kochia scoparia) [15]; 31 g ai/ha): 0; Plant response rating, Kochia (kochia (Kochia scoparia) [15]; 125 g ai/ha): 0; Plant response rating, Ducksalad [16]: 0; Plant response rating, Rice (rice (Oryza sativa)): 0; Plant response rating, Pigweed ([17]; 31 g ai/ha): 0; Plant response rating, Pigweed ([17]; 125 g ai/ha): 0; Plant response rating, Ryegrass, Italian [18, 19]: 0; Plant response rating, Ryegrass, Italian [18, 20]: 0

Reference: patent publication US10485235B2, “Aryloxypyrimidinyl ethers as herbicides” (FMC Corporation, priority 2015, dated 2019)
